# “Also recorded” adds a separate entry of the source. Like-named read-outs stand apart in the source and are kept apart here.
# Columns and labels:
# [1] = system: brine shrimp (Artemia salina Leach); assay: Brine shrimp lethality test (BST); format: in vivo; conditions: for LC50: Artemia salina, read-out: BST LC50
# Method: (§1) The brine shrimp (Artemia salina Leach) test (BST) was performed as modified to determine LC50 values in μg/ml. Seven-day in vitro cytotoxicity tests against human tumor cell lines were carried out at the Purdue Cancer Center, using standard protocols for A-549 (human lung carcinoma), MCF-7 (human breast carcinoma) and HT-29 (human colon carcinoma) with adriamycin as a positive control. The reported ED50 values in μg/ml (Table 5) were tabulated from the same run in order to facilitate comparison for the SAR's.
# (§2) Bioassays. The brine shrimp (Artemia salina Leach) test (BST) was performed as modified. Zhao et al., Phytochemistry, 33, p. 1065 (1993). Seven-day in vitro cytotoxicity tests against human tumor cell lines were carried out at the Purdue Cancer Center, using standard protocols for A-549 (human lung carcinoma), Gu, Z. M.; Fang, X.-P.; Miesbauer, L. R., Smith, D. L.; and McLaughlin, J. L., 30, 31, and 32-Hydroxybullatacinones: Bioactive Terminally-Hydroxylated Annonaceous Acetogenins from Annona bullata., J. Nat. Prod., 1993, 56, 870-876; MCF-7 (human breast carcinoma) McLaughlin, J. L., Chang, C.-J., and Smith, D. L., Simple Bench-Top Bioassays (Brine Shrimp and Potato Discs) for the Discoveries of Plant Antitumor Compounds: A Review of Recent Progress. In Kinghorn, A. D., Balandrin, J. (Eds): "Human Medicinal Agents from Plants", ACS Symposium Series, Washington, D.C., American Chemical Society, 1993, pp. 112-137; and HT-29 (human colon carcinoma), Mclaughlin, J.L., Chang, C.-J., Smith, D.L., "'Bench-Top' Bioassays for the Discovery of Bioactive Natural Products: An Update", in Rahman, Atta-ur- (Ed): "Studies in Natural Product Chemistry", Vol. 9, Amsterdam, Elsevier, 1991, pp. 383-409, with adriamycin as a positive control. The reported values (Table IV) were tabulated from the same run in order to facilitate comparison for the SAR's.
# (§3) Bioassay. The extracts, fractions, and isolates were routinely evaluated for lethality to brine shrimp larvae (BST). Cytotoxicities against human solid tumor cells were measured at the Purdue Cell Culture Laboratory, Purdue Cancer Center, for the A-549 lung carcinoma, MCF-7 breast carcinoma, and HT-29 colon adenocarcinoma.
# (§4) The brine shrimp lethality test (BST), on newly hatched naupleii, was performed in our laboratory as previously described. McLaughlin, Methods in Plant Biochemistry, Vol. 6, Hostettmann, Academic Press, London, pp. 1-33 (1991). Seven day cytotoxicities against human solid tumor cells were measured at the Cell Culture Laboratory, Purdue Cancer Center, for the A-549 lung carcinoma, MCF-7 breast carcinoma, and HT-29 colon adenocarcinoma. The respiratory functions of rat liver mitochondria (RMB) were measured polarographically by determination of their rates of oxygen consumption after the addition of acetogenins or their derivatives.
# [2] = system: rat liver mitochondria; assay: Rat mitochondrial bioassay (RMB), inhibition of oxygen uptake; format: biochemical; conditions: for RMB IC50: Table 17, oxygen consumption of rat liver mitochondria, parent and acetal derivative in the same run
# Method: as §4
# The oxidative phosphorylation pathway (or electron transport chain) is responsible for oxidizing NADH to NAD^+ and producing ATP from ADP and phosphate within the mitochondria. There are five enzyme complexes in this pathway: NADH-ubiquinone reductase (complex I), succinate-ubiquinone reductase (complex II), ubiquinone-cytochrome c reductase (complex III), cytochrome c oxidase (complex IV) and the F0 F1 -ATPase complex (complex V). The end point of the oxidative phosphorylation pathway is the reduction of oxygen (O2) to water in the mitochondria (thus, it is also called respiration), coupled with the synthesis of ATP by complex V. State 4 respiration is the oxidation of substrates in the absence of a phosphate acceptor (e.g., ADP). State 3 respiration occurs when a phosphate acceptor is present and oxygen utilization increases. The ratio of State 3 respiration to State 4 respiration is the respiratory control ratio (RCR).
# The process of respiration can be measured by using an oxygen electrode to detect the amount of oxygen present in the assay cell. If respiration is occurring normally, the concentration of oxygen should slowly decrease as it is reduced to water. However, if there is some type of inhibition of oxidative phosphorylation occurring, the oxygen level will no longer decrease at the same rate. This rate of oxygen usage can be visualized by a chart recorder connected to the oxygen electrode. At normal respiration,a decreasing baseline slope will be established. During inhibition, however, the baseline slope should decrease (i.e., the slope will move closer to zero), since the oxygen present is no longer being reduced. In other words, the oxygen concentration in the assay cell is no longer decreasing at the same rate as in normal respiration. Furthermore, inhibition sites at specific complexes can be determined by competitive inhibition studies. This is accomplished by addition of a known inhibitor of, e.g., complex I, followed by the new respiration-inhibiting compound. […] This can be verified by trying inhibitors at other sites and by reversing the order, i.e., adding the new compound and then the known inhibitor.
# The method for isolating rat liver mitochondria essentially followed the published methodology. Ahammadsahib et al., Life Sciences, 53, pgs. 1113-1120 (1993). The isolation buffer used for the isolation of mitochondria from rat liver consisted of 4 mM Tris-HC1, 0.5 mM EDTA, and 250 mM sucrose at a pH of 7.4. The isolation buffer was kept at refrigeration temperature at all times by storing on ice during the whole procedure. The rats were supplied by Sprague-Dawley, were male, and weighed approximately 300-320 grams. They were sacrificed with carbon dioxide, and the livers were removed and immediately placed in the isolation buffer on ice. The livers were then rinsed with several washings of cold buffer, cut into pieces, and homogenized. The homogenates were then centrifuged (Sorvall Superspeed RC2-B, 4° C) for 10 minutes at approximately 2000 rpms; the supernatant was next centrifuged for 20 minutes at approximately 9000 rpms. The pellet was reserved and resuspended in 2 ml of assay buffer with a glass pipet. The assay buffer consisted of 100 mM KC1, 5 mM KH2 PO4, 1 mM EDTA, 5 mM glutamate, 1 mM malate, and 20 mM Tris-HCl at a pH of 7.4 and was stored at room temperature. […]
# [3] = system: A-549 (human lung carcinoma); assay: Seven-day in vitro cytotoxicity, A-549; format: cell-based; conditions: A549, 168 h
# Method: as §1, §2, §3, §4
# [4] = system: MCF-7 (human breast carcinoma); assay: Seven-day in vitro cytotoxicity, MCF-7; format: cell-based; conditions: MCF7, 168 h
# Method: as §1, §2, §3, §4
# [5] = Table 17, seven day cytotoxicity, same run, read-out: A-549 ED50
# [6] = Table 17, seven day cytotoxicity, same run, read-out: MCF-7 ED50
# [7] = read-out: MCF-7 ED50, Table 17, seven day cytotoxicity, same run
# [8] = read-out: MCF-7 LC50, Table 12, same run
Compound,"LC50 ([1]; Table 17, same run)","IC50 [4, 6]",RMB IC50 [2],further results
CCCCC(O)CCCCCC(O)C1CCC(C2CCC(C(O)CCCCCCCCCCCCC3=CC(C)OC3=O)O2)O1 (centres unmarked) [Compound 2],,,,"LC50 ([1]; Table 5, brine shrimp larvae): 6 ng/mL; mitochondrial inhibition ([2]; rat liver mitochondria, result in words, listed as bullanin (2)): high activity; also recorded: slightly higher potencies than bullatacin"
"CCCCCCCCCCC(O)C1CCC(C2CCC(C(O)CCCCC(O)CCCCCCCC3=CC(C)OC3=O)O2)O1 (centres unmarked) [Compound 3, Asimin]",,,,"BST LC50 ([1]; Table 5, brine shrimp larvae): 4.6 ng/mL"
"CCCCCCC(O)CCCC(O)C1CCC(C2CCC(C(O)CCCCCCCCCCCCC3=CC(C)OC3=O)O2)O1 (centres unmarked) [Compound 4, Asiminacin]",,,,"LC50 ([1]; Table 5, brine shrimp larvae): 5.7 ng/mL"
"CCCCCC(O)CCCCC(O)C1CCC(C2CCC(C(O)CCCCCCCCCCCCC3=CC(C)OC3=O)O2)O1 (centres unmarked) [Compound 5, Asiminecin]",,,,"LC50 ([1]; Table 5, brine shrimp larvae): 4.9 ng/mL; IC50 ([3]; read-out: A-549 LC50): 0.000329 ng/mL"
"CCCCCCCCCCCCCC[C@@H](O)[C@H]1CC[C@H]([C@H](O)CC[C@H](O)CCCCC[C@@H](O)CC2=C[C@H](C)OC2=O)O1 [Compound 8, Goniothalamicin, reference compound]",37000 ng/mL,0.00573 ng/mL,554.8 n moles/Lt/mg protein,"IC50 [3, 5]: 0.00711 ng/mL"
"CCCCCCCCCCCCCC[C@@H](O)[C@H](O)CC[C@H](O)[C@@H]1CC[C@@H](CCCCC[C@@H](O)CC2=C[C@H](C)OC2=O)O1 [Compound 10, Gigantetrocin A, reference compound]",600 ng/mL,0.355 ng/mL,287.1 n moles/Lt/mg protein,"IC50 [3, 5]: 4.52e-05 ng/mL"
"CCCCCCCCCCCCCC[C@@H](O)[C@H]1CC[C@@H]([C@@H]2CC[C@@H](CCCCC[C@@H](O)CC3=C[C@H](C)OC3=O)O2)OCO1 [Compound 11, 14,17-formaldehyde acetal derivative]",,,,"IC50 ([3]; read-out: A-549 ED50): 0.798 ng/mL; IC50 [4, 7]: 461 ng/mL"
"CCCCCC[C@H](O)CCC[C@H](O)[C@H]1CC[C@H]([C@H](O)CC[C@H](O)[C@@H]2CC[C@@H](CCCCCCCCCC3=C[C@H](C)OC3=O)O2)O1 [Compound 13, Squamostatin A, reference compound]",2800 ng/mL,,,"IC50 ([3]; read-out: A-549 ED50): 0.268 ng/mL; IC50 [4, 7]: 0.072 ng/mL"
"CCCCCC[C@H](O)CCC[C@H](O)[C@H]1CC[C@H]([C@H]2CC[C@@H]([C@@H]3CC[C@@H](CCCCCCCCCC4=C[C@H](C)OC4=O)O3)OCO2)O1 [Compound 15, 16,19-mono-formaldehyde acetal derivative]",7 ng/mL,1090 ng/mL,,
"CCCCCC[C@H](O)CCC[C@H](O)[C@H]1CC[C@H]([C@H]2CC[C@H]([C@H](O)CCCCCCCCCCCCC3=C[C@H](C)OC3=O)O2)O1 [Compound 16, Squamocin, reference compound]",20 ng/mL,,21.5 n moles/Lt/mg protein,"IC50 [4, 7]: 30.3 ng/mL"
"CCCCCC[C@H]1CCC[C@@H](C2CCC(C3CCC(C(O)CCCCCCCCCCCCC4=CC(C)OC4=O)O3)O2)OCO1 (some centres unmarked) [Compound 17, 24,28-formaldehyde acetal derivative of squamocin]",4.4 ng/mL,695 ng/mL,421.1 n moles/Lt/mg protein,
"CCCCCCCCCC[C@H](O)[C@H]1CC[C@H]([C@H]2CC[C@@H]([C@@H]3CC[C@@H](CCCCCCC[C@@H](O)CC4=C[C@H](C)OC4=O)O3)OCO2)O1 [Compound 19, 16,19-Formaldehyde acetal derivative of bullatalicin]",49 ng/mL,18.5 ng/mL,29.8 n moles/Lt/mg protein,
"CCCCCCCCCC[C@@H](O)[C@H]1CC[C@H]([C@H](O)CC[C@H](O)[C@@H]2CC[C@@H](CCCCCCC[C@@H](O)CC3=C[C@H](C)OC3=O)O2)O1 [Compound 20, Bullatanocin, reference compound]",430 ng/mL,24.2 ng/mL,50.7 n moles/Lt/mg protein,
"CCCCCCCCCC[C@@H](O)[C@H]1CC[C@H]([C@H]2CC[C@@H]([C@@H]3CC[C@@H](CCCCCCC[C@@H](O)CC4=C[C@H](C)OC4=O)O3)OCO2)O1 [Compound 21, 16,19-Formaldehyde acetal derivative of bullatanocin]",6.5 ng/mL,222 ng/mL,11.3 n moles/Lt/mg protein,
"CCCCCCCCCCCCC(O)C1CCC(C(O)CCC(O)C2CCC(CCCCCC(O)CC3=CC(C)OC3=O)O2)O1 (stereo not drawn) [Compound 22, C-18/21-cis-gigantecin]",,,,LC50 ([1]; Table 12): 249 ng/mL
"CCCCCCCCCC[C@H](O)[C@H]1CC[C@H]([C@H]2CC[C@@H]([C@@H]3CC[C@@H](CCCCCCC[C@@H]4CC(CC(C)=O)C(=O)O4)O3)OCO2)O1 (stereo partly drawn) [Compound 27, 16,19-Formaldehyde acetal derivatives of (2,4-cis and trans)-bullatalicinones]",38 ng/mL,63.9 ng/mL,20.5 n moles/Lt/mg protein,
"CCCCCCCCCCCC/C=C\CCC(O)C(O)CCC(O)C1CCC(CCCCCC(O)CC2=CC(C)OC2=O)O1 (centres unmarked) [Compound 28, Gigantetronenin, reference compound]",,,,"LC50 ([1]; Table 12): 10400 ng/mL; IC50 [4, 8]: 1.49e-05 ng/mL"
"CCCCCCCCCCCC[C@@H](O)[C@H]1CC[C@H]([C@H](O)CC[C@H](O)[C@@H]2CC[C@@H](CCCCC[C@@H](O)CC3=C[C@H](C)OC3=O)O2)O1 [Compound 29, Gigantecin]",,,,"LC50 ([1]; Table 12): 34.4 ng/mL; IC50 ([3]; read-out: A-549 LC50): < 10 ng/mL; IC50 [4, 8]: 0.1 ng/mL"
"C=C(C)[C@H]1Cc2c(ccc3c2O[C@@H]2COc4cc(OC)c(OC)cc4[C@@H]2C3=O)O1 [Rotenone, rotenone, reference compound]",,,34.8 n moles/Lt/mg protein,LC50 [1]: 12.3 ng/mL
